Measurements published in patent US6783775B2, “Serum-derived factor inducing cell differentiation and medical uses thereof” (Hadasit Medical Research Services and Development Ltd., priority 1996, dated 2004).

Assays:
HL-60 cells [1] = assay: Leukemic cell cloning (colony formation) of HL-60 cells in semi-solid medium; assay type: cell-based, human; conditions: HL-60 600 cells/ml; 8 days; mean of two experiments; G-CSF 1000 U/ml, IL-1 100 U/ml
Protocol: (§1) Cell lines included the human myelomonocytic cells HL-60, GM-CSF-dependent human myelomonocytic cells LK (established in the inventors' laboratory) and the murine monocytic cell line WEHI. Cell lines were maintained by sub-culturing every 3-4 days at 2.5×10^5 cell/ml in either alpha minimal essential or RPMI-1640 media (GIBCO, Grand Island, N.Y.) supplemented with 10-20% fetal calf serum (FCS) (Bio Labs Jerusalem, Israel). The cultures were incubated at 37° C., in a humidified atmosphere of 5% CO2 in air. The concentration of viable cells was determined by the trypan blue exclusion technique. Total cell count was performed using a Coulter counter.
(§2) 300-1000 cells/ml were seeded in semi-solid medium composed of 0.83% methyl-cellulose (Fisher Scientific company, Fair Lawn, N.J.) or 0.3% Bacto agar (Difco laboratories, Detroit, Mich.) in alpha medium supplemented with 10% FCS. Colony number was scored with an inverted microscope on day 8. In order to determine cellular maturation, single colonies were picked up with a fine capillary tube, smeared on a glass slide and stained.

HL-60 cells [2] = assay: Cell proliferation assay (3H-thymidine incorporation) on HL-60 cells; assay type: cell-based, human
Protocol: as §1
HL-60 or other cells were cultured at 1.3×10^5/ml in 24-well dish and medium containing 0.5% heat-inactivated FCS and various dilutions of the tested fractions. DNA synthesis was determined on day 4 by incorporation of ^3[H]-thymidine ([…]/150 μl) (5 mCi/mmol, ICN Radiochemicals, Irvine, Calif.) added 12 hrs before harvesting. One unit of SDF was defined as the amount per milliliter required for 50% decrease in ^3H-thymidine incorporation.

[3] = tested on: normal hemopoietic progenitor cells; assay: Indirect cloning (two-phase culture) of normal hemopoietic progenitors; assay type: cell-based, human; conditions: indirect cloning system, control (0) 70
Protocol: Indirect cloning: Cells were prepared as described for direct cloning, were first incubated for several days in liquid culture supplemented with or without the indicated growth factors or tested fraction, then washed. and cloned in semi-solid medium as described above.
Expansion of normal hemopoietic progenitors—In order to test the effect of SDF on early and late normal hemopoietic progenitors a two-phase culture procedure was employed:
Phase 1 (Expansion phase)—Light density BM or PB cells were incubated for several days in liquid medium supplemented with SDF.
Phase 2 (Clonal phase)—At the end of phase 1, cells were harvested, washed and recultured in either semi solid medium or in liquid medium supplemented with either recombinant human late growth/differentiation factors like GM-CSF, Epo, or 5637-CM, which contains GM, G-CSF. IL-6, IL-1 and other cytokines, but not Epo. […] The lineage specific differentiation of the colonies in Phase 2 depended on the late factor present, e.g., Epo for CFU-E and GM-CSF for CFU-GM.

WEHI cells = assay: Leukemic cell cloning (colony formation) of WEHI cells in semi-solid medium; assay type: cell-based, murine; conditions: WEHI 300 cells/ml; 8 days; mean of two experiments; G-CSF 100 U/ml, IL-1 100 U/ml
Protocol: as §1, §2

CC1=C(/C=C/C(C)=C/C=C/C(C)=C/C(=O)O)C(C)(C)CCC1 [Retinoic acid]
Colonies: Diffused (fully differentiated) (HL-60 cells [1]): 114 | Colonies: Partially diffused (partially differentiated) (HL-60 cells [1]): 49 | Colonies: Tight (undifferentiated) (HL-60 cells [1]): 0 | Colonies: Total (HL-60 cells [1]): 163

O=C(O)c1cc(C(=O)O)c2c(n1)C(=O)C(=O)c1cc(C(=O)O)[nH]c1-2 [PQQ, pyrroloquinoline quinone]
inhibition at 0.01 µg/mL (HL-60 cells [2]; Homo sapiens, HL-60, PQQ concentration 0.01 μg/ml, HL60 cells, read-out: Growth inhibition (%)): 0% | inhibition at 0.05 µg/mL (HL-60 cells [2]; Homo sapiens, HL-60, PQQ concentration 0.05 μg/ml, HL60 cells, read-out: Growth inhibition (%)): 30% | inhibition at 0.1 µg/mL (HL-60 cells [2]; Homo sapiens, HL-60, PQQ concentration 0.1 μg/ml, HL60 cells, read-out: Growth inhibition (%)): 30% | inhibition at 0.5 µg/mL (HL-60 cells [2]; Homo sapiens, HL-60, PQQ concentration 0.5 μg/ml, HL60 cells, read-out: Growth inhibition (%)): 40% | inhibition at 1 µg/mL (HL-60 cells [2]; Homo sapiens, HL-60, PQQ concentration 1 μg/ml, HL60 cells, read-out: Growth inhibition (%)): 40% | inhibition at 5 µg/mL (HL-60 cells [2]; Homo sapiens, HL-60, PQQ concentration 5 μg/ml, HL60 cells, read-out: Growth inhibition (%)): 60% | Colony No. ([3]; PQQ concentration 0.01 μg/ml): 89 | Colony No. ([3]; PQQ concentration 0.1 μg/ml): 109 | Colony No. ([3]; PQQ concentration 1 μg/ml): 130 | Colony No. ([3]; PQQ concentration 5 μg/ml): 148

B1: ceruloplasmin (protein, UniProt P00450 20-1065, looked up)
Ceruloplasmin: KEKHYYIGIIETTWDYASDHGEKKLISVDTEHSNIYLQNGPDRIGRLYKKALYLQYTDETFRTTIEKPVWLGFLGPIIKAETGDKVYVHLKNLASRPYTFHSHGITYYKEHEGAIYPDNTTDFQRADDKVYPGEQYTYMLLATEEQSPGEGDGNCVTRIYHSHIDAPKDIASGLIGPLIICKKDSLDKEKEKHIDREFVVMFSVVDENFSWYLEDNIKTYCSEPEKVDKDNEDFQESNRMYSVNGYTFGSLPGLSMCAEDRVKWYLFGMGNEVDVHAAFFHGQALTNKNYRIDTINLFPATLFDAYMVAQNPGEWMLSCQNLNHLKAGLQAFFQVQECNKSSSKDNIRGKHVRHYYIAAEEIIWNYAPSGIDIFTKENLTAPGSDSAVFFEQGTTRIGGSYKKLVYREYTDASFTNRKERGPEEEHLGILGPVIWAEVGDTIRVTFHNKGAYPLSIEPIGVRFNKNNEGTYYSPNYNPQSRSVPPSASHVAPTETFTYEWTVPKEVGPTNADPVCLAKMYYSAVEPTKDIFTGLIGPMKICKKGSLHANGRQKDVDKEFYLFPTVFDENESLLLEDNIRMFTTAPDQVDKEDEDFQESNKMHSMNGFMYGNQPGLTMCKGDSVVWYLFSAGNEADVHGIYFSGNTYLWRGERRDTANLFPQTSLTLHMWPDTEGTFNVECLTTDHYTGGMKQKYTVNQCRRQSEDSTFYLGERTYYIAAVEVEWDYSPQREWEKELHHLQEQNVSNAFLDKGEFYIGSKYKKVVYRQYTDSTFRVPVERKAEEEHLGILGPQLHADVGDKVKIIFKNMATRPYSIHAHGVQTESSTVTPTLPGETLTYVWKIPERSGAGTEDSACIPWAYYSTVDQVKDLYSGLIGPLIVCRRPYLKVFNPRRKLEFALLFLVFDENESWYLDDNIKTYSDHPEKVNKDDEEFIESNKMHAINGRMFGNLQGLTMHVGDEVNWYLMGMGNEIDLHTVHFHGHSFQYKHRGVYSSDVFDIFPGTYQTLEMFPRTPGIWLLHCHVTDHIHAGMETTYTVLQNEDTKSG
activity of the CP fraction separated from SDF (HL-60 cells [2]; CP fraction eluted at about 40% acetonitrile from RP-HPLC Resource column): devoid of activity

B2: G-CSF: growth factor (colony stimulating factor) used for comparison (protein, UniProt P09919 31-207, looked up)
Granulocyte …: TPLGPASSLPQSFLLKCLEQVRKIQGDGAALQEKLVSECATYKLCHPEELVLLGHSLGIPWAPLSSCPSQALQLAGCLSQLHSGLFLYQGLLQALEGISPELGPTLDTLQLDVADFATTIWQQMEELGMAPALQPTQGAMPAFASAFQRRAGGVLVASHLQSFLEVSYRVLRHLAQP
Colonies: Diffused (fully differentiated) (HL-60 cells [1]): 0 | Colonies: Partially diffused (partially differentiated) (HL-60 cells [1]): 12 | Colonies: Tight (undifferentiated) (HL-60 cells [1]): 325 | Colonies: Total (HL-60 cells [1]): 337 | Colonies: Diffused (fully differentiated) (WEHI cells): 51 | Colonies: Partially diffused (partially differentiated) (WEHI cells): 55 | Colonies: Tight (undifferentiated) (WEHI cells): 25 | Colonies: Total (WEHI cells): 132
